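Tested at 5 concentrations; 48 h exposure; 96-well plates; endpoints linearly interpolated, else capped at highest concentration. At the GI50, growth is halved.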 Calls of active or inactive are those of the source. No stated cut-off is given here; in the data, active = GI50 up to about 1.1 µM and inactive = higher.
Experiments:
Assay in all cases: NCI tumour cell line growth inhibition, 48 h
[1] = tested on: MDA-N
[2] = tested on: DU-145
[3] = tested on: CCRF-CEM
[4] = tested on: OVCAR-4
[5] = tested on: U-251
[6] = tested on: NCI/ADR-RES
[7] = tested on: SR
[8] = tested on: M14
[9] = tested on: COLO 205
[10] = tested on: 786-0
[11] = tested on: OVCAR-3
[12] = tested on: IGROV-1
[13] = tested on: HL-60
[14] = tested on: Hs-578T
[15] = tested on: NCI-H460
[16] = tested on: UACC-62
[17] = tested on: NCI-H23
[18] = tested on: PC-3
[19] = tested on: HCT-116
[20] = tested on: BT-549

Row | Compound | GI50 [1] | GI50 [2] | GI50 [3] | GI50 [4] | GI50 [5] | GI50 [6] | GI50 [7] | GI50 [8] | GI50 [9] | GI50 [10] | GI50 [11] | GI50 [12] | GI50 [13] | GI50 [14] | GI50 [15] | GI50 [16] | GI50 [17] | GI50 [18] | GI50 [19] | GI50 [20]
1 | N#Cc1nc(C2CCC2)oc1N | > 100 µM (inactive) | > 100 µM (inactive) | 22.8 µM (inactive) | > 100 µM (inactive) | > 100 µM (inactive) | > 100 µM (inactive) | > 100 µM (inactive) | > 100 µM (inactive) | > 100 µM (inactive) | > 100 µM (inactive) | > 100 µM (inactive) | > 100 µM (inactive) | 84.9 µM (inactive) | > 100 µM (inactive) | > 100 µM (inactive) | > 100 µM (inactive) | > 100 µM (inactive) | > 100 µM (inactive) | > 100 µM (inactive) | 
2 | COC(=O)[C@@]12CCCC(=O)[C@@H]1[C@H]1CCCC[C@H]12 | > 100 µM (inactive) | > 100 µM (inactive) | 59.2 µM (inactive) | > 100 µM (inactive) | > 100 µM (inactive) | > 100 µM (inactive) | > 100 µM (inactive) | > 100 µM (inactive) | > 100 µM (inactive) | > 100 µM (inactive) | > 100 µM (inactive) | > 100 µM (inactive) |  |  | > 100 µM (inactive) | > 100 µM (inactive) | > 100 µM (inactive) | > 100 µM (inactive) | > 100 µM (inactive) | > 100 µM (inactive)
3 | N#C/C(=C\n1ccc(=O)[nH]c1=S)C(N)=O | > 100 µM (inactive) | > 100 µM (inactive) | > 100 µM (inactive) | > 100 µM (inactive) | > 100 µM (inactive) | > 100 µM (inactive) | > 100 µM (inactive) | > 100 µM (inactive) | > 100 µM (inactive) | > 100 µM (inactive) | < 0.01 µM (active) | > 100 µM (inactive) | > 100 µM (inactive) | > 100 µM (inactive) | > 100 µM (inactive) | > 100 µM (inactive) | > 100 µM (inactive) | > 100 µM (inactive) | > 100 µM (inactive) | 
4 | O=C(Cn1cc(-c2ccccc2)nn1)NC1CCCCC1 |  | > 100 µM (inactive) | > 100 µM (inactive) | > 100 µM (inactive) | > 100 µM (inactive) | > 100 µM (inactive) | > 100 µM (inactive) | > 100 µM (inactive) | > 100 µM (inactive) | > 100 µM (inactive) |  | > 100 µM (inactive) | > 100 µM (inactive) |  | > 100 µM (inactive) |  | > 100 µM (inactive) | > 100 µM (inactive) | > 100 µM (inactive) | > 100 µM (inactive)
5 | N=C(N)N/N=C/c1c(-c2ccccc2[N+](=O)[O-])nc2sccn12 |  | 48.2 µM (inactive) | 19.4 µM (inactive) | 45.9 µM (inactive) | 15.8 µM (inactive) | > 100 µM (inactive) | 14.4 µM (inactive) | 16.7 µM (inactive) | 15.8 µM (inactive) | 19.5 µM (inactive) | 24.9 µM (inactive) | 37.6 µM (inactive) | 16.6 µM (inactive) | 29.1 µM (inactive) | 19.1 µM (inactive) | 17.5 µM (inactive) | 29.2 µM (inactive) | 24.3 µM (inactive) | 18.6 µM (inactive) | 30.7 µM (inactive)
6 | C[C@]12CC(c3ccccc3O1)C(C(=O)Nc1nc(C34CC5CC(CC(C5)C3)C4)cs1)C(=O)N2 (stereo partly specified) |  | > 100 µM (inactive) | 89.1 µM (inactive) | > 100 µM (inactive) | > 100 µM (inactive) | > 100 µM (inactive) | > 100 µM (inactive) | > 100 µM (inactive) | > 100 µM (inactive) | > 100 µM (inactive) | > 100 µM (inactive) | 75 µM (inactive) | > 100 µM (inactive) | > 100 µM (inactive) | > 100 µM (inactive) | > 100 µM (inactive) | > 100 µM (inactive) | > 100 µM (inactive) | 98.9 µM (inactive) | > 100 µM (inactive)
7 | O=c1ccn(-c2ccccn2)c(=O)n1-c1ccccn1 | > 100 µM (inactive) | > 100 µM (inactive) | > 100 µM (inactive) | > 100 µM (inactive) | > 100 µM (inactive) | > 100 µM (inactive) |  | > 100 µM (inactive) | > 100 µM (inactive) | > 100 µM (inactive) | > 100 µM (inactive) | > 100 µM (inactive) | > 100 µM (inactive) | > 100 µM (inactive) | > 100 µM (inactive) |  | > 100 µM (inactive) | > 100 µM (inactive) | > 100 µM (inactive) | 
8 | CS/C(N)=N/c1cccc2ccccc12 | > 10 µM (inactive) | > 10 µM (inactive) | > 10 µM (inactive) | > 10 µM (inactive) | > 10 µM (inactive) | > 10 µM (inactive) | > 10 µM (inactive) | > 10 µM (inactive) | > 10 µM (inactive) | > 10 µM (inactive) | > 10 µM (inactive) | > 10 µM (inactive) | > 10 µM (inactive) |  | > 10 µM (inactive) | > 10 µM (inactive) | > 10 µM (inactive) | > 10 µM (inactive) | > 10 µM (inactive) | 
9 | N#C/C(=C\c1cccc(Br)c1)c1nc2ccccc2c(=O)[nH]1 | > 100 µM (inactive) | > 100 µM (inactive) | > 100 µM (inactive) | > 100 µM (inactive) | 40.3 µM (inactive) | > 100 µM (inactive) | 92.9 µM (inactive) | > 100 µM (inactive) | > 100 µM (inactive) | 49.4 µM (inactive) |  | > 100 µM (inactive) | > 100 µM (inactive) |  | > 100 µM (inactive) | 76.2 µM (inactive) |  | > 100 µM (inactive) | > 100 µM (inactive) | 
10 | NC(=O)C(=CNC(=S)Nc1ccccc1)C(N)=O | > 100 µM (inactive) | > 100 µM (inactive) | > 100 µM (inactive) | > 100 µM (inactive) | > 100 µM (inactive) | > 100 µM (inactive) | > 100 µM (inactive) | > 100 µM (inactive) | > 100 µM (inactive) | > 100 µM (inactive) | 1.05 µM (active) | > 100 µM (inactive) | > 100 µM (inactive) | 45 µM (inactive) | > 100 µM (inactive) | > 100 µM (inactive) | > 100 µM (inactive) | > 100 µM (inactive) | > 100 µM (inactive) | 
11 | COc1ccc(C(=O)c2nc3ccccc3nc2N2CCN(c3ccccc3)CC2)cc1OC | > 100 µM (inactive) | > 100 µM (inactive) | > 100 µM (inactive) | > 100 µM (inactive) | > 100 µM (inactive) | > 100 µM (inactive) | > 100 µM (inactive) | > 100 µM (inactive) | > 100 µM (inactive) | > 100 µM (inactive) | > 100 µM (inactive) | > 100 µM (inactive) | > 100 µM (inactive) | > 100 µM (inactive) | > 100 µM (inactive) | > 100 µM (inactive) | > 100 µM (inactive) | > 100 µM (inactive) | > 100 µM (inactive) | 
12 | CC1(C)OC(=O)C(=Cc2ccc([N+](=O)[O-])s2)C(=O)O1 | 14.9 µM (inactive) | 15.8 µM (inactive) | 13.2 µM (inactive) |  | 15.4 µM (inactive) | 18.5 µM (inactive) | 2.72 µM (inactive) | 12.3 µM (inactive) | 16.6 µM (inactive) | 16.9 µM (inactive) | 10.6 µM (inactive) |  | 2.49 µM (inactive) |  | 56.6 µM (inactive) |  | 18.1 µM (inactive) | 19.2 µM (inactive) | 2.4 µM (inactive) | 13.4 µM (inactive)
13 | CCOC(=O)c1c(OCC)[nH]c(=O)c(C(c2cccs2)c2c(O)c(C(=O)OCC)c(OCC)[nH]c2=O)c1O |  | 13.9 µM (inactive) | 14.2 µM (inactive) | 17.6 µM (inactive) | 12.4 µM (inactive) | 27.4 µM (inactive) |  | 16.1 µM (inactive) | 17.3 µM (inactive) | 12.1 µM (inactive) | 11.6 µM (inactive) | 13.9 µM (inactive) | 13.7 µM (inactive) | 21 µM (inactive) | 13.3 µM (inactive) | 14.2 µM (inactive) | 21.4 µM (inactive) | 18.2 µM (inactive) | 17.5 µM (inactive) | 5 µM (inactive)
14 | COC1CC2CCC(C)[C@](O)(O2)C(=O)C(=O)N2CCCCC2C(=O)OC(C(C)CC2CCC(O)C(OC)C2)CC(=O)C(C)C=C(C)C(OC(=O)CN(C)C)C(OC)C(=O)C(C)CC(C)/C=C/C=C/C=C\1C (stereo partly specified) |  | 7.38 µM (inactive) | < 0.01 µM (active) | < 0.01 µM (active) | < 0.01 µM (active) |  | < 0.01 µM (active) | 7.43 µM (inactive) | 11.3 µM (inactive) | 10.8 µM (inactive) | 9.79 µM (inactive) |  | 2 µM (inactive) | < 0.01 µM (active) | 6.22 µM (inactive) | < 0.01 µM (active) | 10.9 µM (inactive) | < 0.01 µM (active) | 5.87 µM (inactive) | < 0.01 µM (active)
15 | O=C(CSCC(=O)N/N=C\c1ccccc1F)N/N=C\c1ccccc1F |  | > 100 µM (inactive) | 90.4 µM (inactive) | > 100 µM (inactive) | 67.3 µM (inactive) | 14 µM (inactive) |  | > 100 µM (inactive) | > 100 µM (inactive) | > 100 µM (inactive) | 27 µM (inactive) | > 100 µM (inactive) | > 100 µM (inactive) | > 100 µM (inactive) | 99.5 µM (inactive) | > 100 µM (inactive) | > 100 µM (inactive) |  | > 100 µM (inactive) | 

From ChEMBL document CHEMBL1201862, “PubChem BioAssay data set” (2004)
